Test results as given in ChEMBL document CHEMBL3885861, “Open TG-GATES”.

Species on record: Rattus norvegicus
Test: Open TG-GATES - Regimen: Daily Repeat
Assay type: toxicity, organism-based, Sprague-Dawley
Parameters: regimen Daily Repeat, gender Male, age 6 weeks
Details: in vivo, iv, route intravenous injection; for APTT / Bas / Eos / Fbg / Ht / Lym / MCH / MCHC / MCV / Mono / Neu / PT / Plat / RBC / Ret / WBC / Hb: tissue Blood; for KIDNEY_L / KIDNEY_R / KIDNEY_TOTAL: tissue Kidney; for LIVER: tissue Liver
[1] = 0 mg/kg, 72 h, dose level Control, time 3 day
[2] = 0 mg/kg, 72 h, tissue Plasma, dose level Control, time 3 day
[3] = 0 mg/kg, […], dose level Control, time 7 day
[4] = 0 mg/kg, […], dose level Control, time 14 day
[5] = 0 mg/kg, […], dose level Control, time 28 day
[6] = 0 mg/kg, […], tissue Plasma, dose level Control, time 7 day
[7] = 0 mg/kg, […], tissue Plasma, dose level Control, time 14 day
[8] = 0 mg/kg, […], tissue Plasma, dose level Control, time 28 day
[9] = 10 mg/kg, 72 h, dose level Low, time 3 day
[10] = 10 mg/kg, 72 h, tissue Plasma, dose level Low, time 3 day
[11] = 10 mg/kg, […], dose level Low, time 7 day
[12] = 10 mg/kg, […], dose level Low, time 14 day
[13] = 10 mg/kg, […], dose level Low, time 28 day
[14] = 10 mg/kg, […], tissue Plasma, dose level Low, time 7 day
[15] = 10 mg/kg, […], tissue Plasma, dose level Low, time 14 day
[16] = 10 mg/kg, […], tissue Plasma, dose level Low, time 28 day

Sequence: GENTAMICIN
- TERMINAL_BW [1]: 231.1 g
- APTT [1]: 23.2 s
- Bas [1]: 0%
- Eos [1]: 1%
- Fbg [1]: 286.6 mg/dL
- Ht [1]: 37.6%
- Lym [1]: 72.8%
- MCH [1]: 21.1 pg
- MCHC [1]: 34.9%
- MCV [1]: 60.6 fL
- Mono [1]: 3.2%
- Neu [1]: 21.6%
- PT [1]: 16.9 s
- Plat [1]: 119.1 x10_4/uL
- RBC [1]: 621 x10_4/ul
- Ret [1]: 5.8%
- WBC [1]: 105.4 x10_2/uL
- KIDNEY_L [1]: 1.1 g
- KIDNEY_R [1]: 1 g
- KIDNEY_TOTAL [1]: 2.1 g
- ALP [2]: 1838 IU/L
- ALT [2]: 41.8 IU/L
- AST [2]: 70.2 IU/L
- BUN [2]: 16.2 mg/dL
- CRE [2]: 0.2 mg/dL
- DBIL [2]: 0 mg/dL
- IP [2]: 6.9 mg/dL
- K [2]: 4.5 meq/L
- LDH [2]: 157.2 IU/L
- Na [2]: 139.6 meq/L
- PL [2]: 147.8 mg/dL
- RALB [2]: 3 g/dL
- TBIL [2]: 0.006 mg/dL
- TC [2]: 72.8 mg/dL
- TG [2]: 107.6 mg/dL
- TP [2]: 5.5 g/dL
- gamma-GTP [2]: 1.6 IU/L
- TERMINAL_BW [3]: 261.2 g
- TERMINAL_BW [4]: 307.6 g
- TERMINAL_BW [5]: 392.7 g
- APTT [3]: 22.1 s
- Bas [3]: 0%
- Eos [3]: 0.8%
- Fbg [3]: 273.2 mg/dL
- Ht [3]: 37.1%
- Lym [3]: 80%
- MCH [3]: 20.6 pg
- MCV [3]: 58.5 fL
- Mono [3]: 3%
- Neu [3]: 15.5%
- PT [3]: 16 s
- Plat [3]: 118.1 x10_4/uL
- RBC [3]: 636.2 x10_4/ul
- Ret [3]: 4.1%
- WBC [3]: 124.9 x10_2/uL
- APTT [4]: 23 s
- Bas [4]: 0%
- Eos [4]: 0.8%
- Fbg [4]: 267.8 mg/dL
- Ht [4]: 40.2%
- Lym [4]: 78%
- MCH [4]: 21 pg
- MCHC [4]: 35.7%
- MCV [4]: 58.8 fL
- Mono [4]: 2.6%
- Neu [4]: 17.6%
- PT [4]: 16.2 s
- Plat [4]: 123.5 x10_4/uL
- RBC [4]: 684.8 x10_4/ul
- Ret [4]: 4%
- WBC [4]: 103.9 x10_2/uL
- APTT [5]: 24.6 s
- Bas [5]: 0%
- Eos [5]: 1.2%
- Fbg [5]: 290.2 mg/dL
- Hb [5]: 15.4 g/dL
- Ht [5]: 43.3%
- Lym [5]: 83%
- MCHC [5]: 35.5%
- MCV [5]: 57.6 fL
- Mono [5]: 2%
- Plat [5]: 102.2 x10_4/uL
- RBC [5]: 752 x10_4/ul
- Ret [5]: 2.3%
- WBC [5]: 107.5 x10_2/uL
- KIDNEY_L [3]: 1.1 g
- KIDNEY_R [3]: 1.1 g
- KIDNEY_TOTAL [3]: 2.2 g
- KIDNEY_L [4]: 1.2 g
- KIDNEY_R [4]: 1.2 g
- KIDNEY_TOTAL [4]: 2.4 g
- KIDNEY_L [5]: 1.4 g
- KIDNEY_R [5]: 1.3 g
- KIDNEY_TOTAL [5]: 2.7 g
- LIVER [5]: 15.2 g
- ALP [6]: 1702.5 IU/L
- ALT [6]: 40.5 IU/L
- AST [6]: 72.2 IU/L
- BUN [6]: 17 mg/dL
- CRE [6]: 0.2 mg/dL
- DBIL [6]: 0 mg/dL
- GLC [6]: 214 mg/dL
- IP [6]: 6.8 mg/dL
- K [6]: 4.4 meq/L
- LDH [6]: 207.2 IU/L
- PL [6]: 135.2 mg/dL
- RALB [6]: 2.9 g/dL
- TBIL [6]: 0.005 mg/dL
- TC [6]: 68.5 mg/dL
- TG [6]: 94.5 mg/dL
- TP [6]: 5.4 g/dL
- gamma-GTP [6]: 1.5 IU/L
- ALP [7]: 1249.2 IU/L
- ALT [7]: 33.4 IU/L
- AST [7]: 61.6 IU/L
- CRE [7]: 0.2 mg/dL
- DBIL [7]: 0 mg/dL
- GLC [7]: 198.6 mg/dL
- IP [7]: 7 mg/dL
- K [7]: 4.7 meq/L
- PL [7]: 140.8 mg/dL
- RALB [7]: 3 g/dL
- TBIL [7]: 0.002 mg/dL
- TC [7]: 63.2 mg/dL
- TG [7]: 154 mg/dL
- TP [7]: 5.6 g/dL
- gamma-GTP [7]: 2 IU/L
- ALP [8]: 976 IU/L
- ALT [8]: 34.8 IU/L
- AST [8]: 58.8 IU/L
- BUN [8]: 18.2 mg/dL
- CRE [8]: 0.2 mg/dL
- DBIL [8]: 0 mg/dL
- GLC [8]: 190.8 mg/dL
- IP [8]: 6.5 mg/dL
- K [8]: 4.1 meq/L
- LDH [8]: 115.4 IU/L
- PL [8]: 135.6 mg/dL
- RALB [8]: 3 g/dL
- TBIL [8]: 0.004 mg/dL
- TG [8]: 101 mg/dL
- TP [8]: 6 g/dL
- gamma-GTP [8]: 2.4 IU/L
- TERMINAL_BW [9]: 228.4 g
- Bas [9]: 0%
- Eos [9]: 0.8%
- Fbg [9]: 300.8 mg/dL
- Ht [9]: 38.3%
- Lym [9]: 71.8%
- MCHC [9]: 34.8%
- MCV [9]: 59.9 fL
- Mono [9]: 3.8%
- Neu [9]: 22%
- PT [9]: 17 s
- Plat [9]: 124.4 x10_4/uL
- RBC [9]: 640 x10_4/ul
- Ret [9]: 5.2%
- WBC [9]: 102 x10_2/uL
- KIDNEY_L [9]: 1 g
- KIDNEY_R [9]: 1 g
- KIDNEY_TOTAL [9]: 2 g
- LIVER [9]: 10.2 g
- AST [10]: 71.8 IU/L
- BUN [10]: 18.2 mg/dL
- CRE [10]: 0.2 mg/dL
- DBIL [10]: 0 mg/dL
- GLC [10]: 174.6 mg/dL
- IP [10]: 6.6 mg/dL
- K [10]: 4.5 meq/L
- LDH [10]: 157.2 IU/L
- PL [10]: 131.2 mg/dL
- RALB [10]: 3 g/dL
- TBIL [10]: 0.012 mg/dL
- TC [10]: 66.4 mg/dL
- TG [10]: 84.6 mg/dL
- TP [10]: 5.5 g/dL
- gamma-GTP [10]: 1.4 IU/L
- TERMINAL_BW [11]: 260.4 g
- TERMINAL_BW [12]: 320 g
- TERMINAL_BW [13]: 376.9 g
- APTT [11]: 22.1 s
- Bas [11]: 0%
- Eos [11]: 1.4%
- Fbg [11]: 290 mg/dL
- Hb [11]: 13.7 g/dL
- Ht [11]: 40%
- Lym [11]: 75.8%
- MCHC [11]: 34.4%
- MCV [11]: 60.6 fL
- Mono [11]: 2.6%
- Plat [11]: 122 x10_4/uL
- RBC [11]: 660.6 x10_4/ul
- Ret [11]: 4.7%
- WBC [11]: 106.3 x10_2/uL
- APTT [12]: 22.5 s
- Bas [12]: 0%
- Eos [12]: 1%
- Fbg [12]: 298.2 mg/dL
- Hb [12]: 14.1 g/dL
- Ht [12]: 39.7%
- Lym [12]: 75.8%
- MCH [12]: 20.6 pg
- MCHC [12]: 35.5%
- MCV [12]: 58.2 fL
- Mono [12]: 2.8%
- Neu [12]: 18.8%
- PT [12]: 16.5 s
- Plat [12]: 124.8 x10_4/uL
- RBC [12]: 683 x10_4/ul
- Ret [12]: 4.4%
- WBC [12]: 118.2 x10_2/uL
- APTT [13]: 25.6 s
- Bas [13]: 0%
- Eos [13]: 1.6%
- Fbg [13]: 309.2 mg/dL
- Ht [13]: 43.2%
- MCHC [13]: 36.1%
- MCV [13]: 53.9 fL
- Mono [13]: 2%
- Neu [13]: 16.4%
- PT [13]: 16.5 s
- Plat [13]: 112.8 x10_4/uL
- RBC [13]: 803.4 x10_4/ul
- Ret [13]: 1.9%
- WBC [13]: 114.2 x10_2/uL
- KIDNEY_L [11]: 1 g
- KIDNEY_R [11]: 1 g
- KIDNEY_TOTAL [11]: 2.1 g
- KIDNEY_L [12]: 1.3 g
- KIDNEY_R [12]: 1.3 g
- KIDNEY_TOTAL [12]: 2.6 g
- KIDNEY_L [13]: 1.4 g
- KIDNEY_R [13]: 1.4 g
- KIDNEY_TOTAL [13]: 2.7 g
- LIVER [12]: 13.6 g
- LIVER [13]: 13.7 g
- ALP [14]: 1411.6 IU/L
- ALT [14]: 40.2 IU/L
- AST [14]: 73 IU/L
- BUN [14]: 18.2 mg/dL
- CRE [14]: 0.2 mg/dL
- DBIL [14]: 0 mg/dL
- GLC [14]: 188.6 mg/dL
- IP [14]: 6.5 mg/dL
- K [14]: 4.3 meq/L
- LDH [14]: 203.6 IU/L
- PL [14]: 146.8 mg/dL
- RALB [14]: 3 g/dL
- TBIL [14]: 0.008 mg/dL
- TC [14]: 70.4 mg/dL
- TG [14]: 121.8 mg/dL
- TP [14]: 5.5 g/dL
- gamma-GTP [14]: 1.2 IU/L
- ALP [15]: 1519.6 IU/L
- ALT [15]: 37 IU/L
- AST [15]: 65.4 IU/L
- CRE [15]: 0.2 mg/dL
- DBIL [15]: 0 mg/dL
- GLC [15]: 186.6 mg/dL
- IP [15]: 6.3 mg/dL
- K [15]: 4.4 meq/L
- LDH [15]: 131.2 IU/L
- RALB [15]: 3.1 g/dL
- TBIL [15]: 0.006 mg/dL
- TC [15]: 61.8 mg/dL
- TG [15]: 152 mg/dL
- TP [15]: 5.8 g/dL
- gamma-GTP [15]: 1.8 IU/L
- AST [16]: 66 IU/L
- CRE [16]: 0.2 mg/dL
- DBIL [16]: 0 mg/dL
- GLC [16]: 176 mg/dL
- IP [16]: 5.8 mg/dL
- K [16]: 4.1 meq/L
- LDH [16]: 137.2 IU/L
- PL [16]: 132 mg/dL
- RALB [16]: 3.1 g/dL
- TBIL [16]: 0.004 mg/dL
- TC [16]: 67.4 mg/dL
- TG [16]: 113.6 mg/dL
- TP [16]: 6.1 g/dL
